For orientation: IC50 means the concentration that gives 50% inhibition. A high value points to weaker potency in that assay.

The structures appear in SMILES notation. Where “and” joins values, the source holds several entries; their conditions need not be identical. Identical values can stand only once.

Experiment [1] concerns the target T1, Human immunodeficiency virus type 1 integrase (Human immunodeficiency virus 1, UniProt Q7ZJM1). Briefly: Inhibition of HIV1 integrase 3'-end processing activity.
For experiment [2], the target named is T1, Human immunodeficiency virus type 1 integrase. Nature of the experiment: Inhibition of HIV1 integrase strand transfer activity.

T1 sequence (Q7ZJM1 whole entry): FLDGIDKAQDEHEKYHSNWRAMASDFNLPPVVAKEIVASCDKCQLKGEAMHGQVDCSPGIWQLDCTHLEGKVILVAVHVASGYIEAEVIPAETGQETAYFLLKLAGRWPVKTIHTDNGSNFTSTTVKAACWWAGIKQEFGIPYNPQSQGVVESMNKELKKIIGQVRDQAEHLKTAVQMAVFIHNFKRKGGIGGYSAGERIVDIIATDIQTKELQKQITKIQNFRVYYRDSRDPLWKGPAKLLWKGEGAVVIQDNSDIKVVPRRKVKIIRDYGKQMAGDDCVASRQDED

`COc1ccc(/C=C/C(=O)c2ccc(O)cc2O)cc1`: the figures for the IC50 in experiment [1] and in experiment [2] were greater than 100 µM and 39 µM, respectively.
On the same counts, the results for `Cc1cc(O)nc(SCC(=O)c2ccc(O)c(O)c2)n1` are 310 µM and 130 µM.
On the same counts, the results for `O=C(/C=C/c1ccc2c(c1)OCO2)c1ccccc1` are greater than 100 µM and greater than 100 µM.
On the same counts, the results for `O=C(/C=C/c1cccc(NC(=O)c2cccs2)c1)c1ccccc1` are greater than 100 µM and 89 µM.
With `O=C(/C=C/c1ccccc1OC(=O)c1cc2ccccc2oc1=O)c1ccccc1`, the IC50 in experiment [1] was greater than 100 µM; in experiment [2] it was 92 µM.
On the same counts, the results for `COc1ccc(OC)c(C(=O)/C=C/c2ccc3c(c2)OCO3)c1` are greater than 100 µM and greater than 100 µM.
As to `COc1cc(OC)c(C(=O)/C=C/c2cccc([N+](=O)[O-])c2)cc1OC`, the IC50 in experiment [1] and in experiment [2] was greater than 100 µM each time.
`Cc1ccc(NCC(=O)N/N=C/c2cccc(OC(=O)c3ccc4c(c3)OCO4)c2)cc1`: the results for the IC50 in experiment [1] and in experiment [2] were 670 µM and 731 µM, respectively.
On the same counts, the results for `CCCn1c(=O)c(C(=O)NNC(=O)c2ccccc2)c(O)c2ccccc21` are 100 µM and 66 µM.
On to `CCCOc1ccc(/C=N/NC2=NC(c3ccccc3O)CC(c3ccccc3)=N2)c(O)c1` (stereo unspecified), for which the IC50 was found to be 64 µM in experiment [1] and 60 µM in experiment [2].
On the same counts, the results for `O=c1nc2n(-c3ccc(Cl)cc3)c3ccc([N+](=O)[O-])cc3cc-2c(=O)[nH]1` are 78 µM and 49 µM.
With `CCCC(=O)NC(c1ccc(OC)c(OC)c1)c1cc(Cl)c2cccnc2c1O` (stereo unspecified), the figures for the IC50 in experiment [1] and in experiment [2] were greater than 100 µM and 90 µM, respectively.
On the same counts, the results for `CCn1c(=O)c(C(=O)NNC(=O)c2ccccc2[N+](=O)[O-])c(O)c2ccccc21` are 36 µM and 30 µM.
Take `Cc1cc(C)cc(OCC(=O)NNC(=O)c2cc3ccccc3oc2=O)c1`: the IC50 amounted to 74 µM in experiment [1] and 72 µM in experiment [2].
In the case of `O=C(Nc1nccs1)/C(O)=C/C(=O)c1ccc(Cl)cc1`, the IC50 in experiment [1] worked out at 95 µM; in experiment [2], 70 µM.
On the same counts, the results for `O=C(COc1ccc2ccccc2c1)NNC(=O)c1cc2ccccc2cc1O` are 18 µM and 12 µM.
On the same counts, the results for `O=C(NC1CCCCC1)C(c1ccco1)N(C(=O)Cn1nnc2ccccc21)c1ccc(S(=O)(=O)NCC2CCCO2)cc1` (stereo unspecified) are greater than 100 µM and greater than 100 µM.
For `CCn1c(=O)c(C(=O)NNC(=O)c2ccc([N+](=O)[O-])cc2)c(O)c2ccccc21`, the IC50 in experiment [1] turned out to be 32 µM; in experiment [2], 20 µM.
On the same counts, the results for `Nc1ccc(C(=O)CC(=O)Nc2cc(C(=O)O)cc(C(=O)O)c2)cc1` are 41 µM and 43 µM.
Regarding `O=C(Oc1ccc(/C=N/Nc2nnc3c(n2)[nH]c2ccccc23)cc1)c1ccc(Br)cc1`, the IC50 in experiment [1] was 857 µM; in experiment [2], 800 µM.
On the same counts, the results for `COc1cccc(C(=O)NNC(=O)c2ccc3ccccc3c2O)c1` are 42 µM and 33 µM.
On the same counts, the results for `CCCn1c(=O)c(C(=O)NNC(=O)CC(=O)OCC)c(O)c2ccccc21` are greater than 100 µM and 48 µM.
On the same counts, the results for `O=C(CSc1nc(O)c2ccccc2n1)c1ccc(O)c(O)c1` are 87 µM and 77 µM.
Take `Oc1ccc(Cl)cc1/C=C/c1ccc2cccc(O)c2n1`: the IC50 in experiment [1] is 195 µM; in experiment [2], 220 µM.
`Oc1ccc(-c2csc(Nc3ncccn3)n2)cc1O`: the figures for the IC50 in experiment [1] and in experiment [2] were 300 µM and 83 µM, respectively.
On the same counts, the results for `O=C1Nc2ccccc2/C1=N\NC(=O)c1ccc(O)cc1O` are greater than 100 µM and 36 µM.
Turning to `Cc1ccc(NC(=O)CN2C(=O)/C(=N\NC(=O)c3ccc4ccccc4n3)c3ccccc32)cc1`, the IC50 in experiment [1] and in experiment [2] was 84 µM throughout.
Consider `O=C(CCC(=O)Nc1ccc([N+](=O)[O-])c(C(F)(F)F)c1)Nc1ccc([N+](=O)[O-])c(C(F)(F)F)c1`, for which the IC50 is 196 µM in experiment [1] and 210 µM in experiment [2].
In the case of `CNc1nc(N/N=C/c2ccc(-c3ccc([N+](=O)[O-])cc3OC)o2)nc(Nc2ccccc2)n1`, the IC50 in experiment [1] amounted to 81 µM; in experiment [2] it was 37 µM.
As to `CCOc1cc(Br)cc(/C=N/c2ncccc2O)c1O`, the concentration for half-maximal inhibition (IC50) in experiment [1] came to 143 µM; in experiment [2], 81 µM.
Take `O=C(CSc1nnc(-c2ccncc2)[nH]1)c1ccc(O)cc1O`: the IC50 in experiment [1] was found to be 91 µM; in experiment [2] it was 25 µM.
On the same counts, the results for `Nc1cc(O)nc(SCC(=O)c2ccc(O)c(O)c2)n1` are 278 µM and 89 µM.
On to `CCCc1nc2ccccc2c(=O)n1NC(=O)c1c(O)c2cccc3c2n(c1=O)CCC3`, for which the IC50 in experiment [1] came out at 64 µM; in experiment [2] it was 58 µM.
Consider `COc1ccc(C(=O)Nc2ccccc2C(=O)NC(C(=O)NNC(=O)c2ccccc2O)C(C)C)cc1` (stereo unspecified), for which the IC50 stood at 19 µM in experiment [1] and 16 µM in experiment [2].
On the same counts, the results for `Cc1nc(SCC(=O)c2ccc(O)c(O)c2)c(C#N)c(CC(C)C)c1C(N)=O` are greater than 100 µM and 85 µM.
On the same counts, the results for `O=S(=O)(Nc1ccc(Br)cc1)c1ccc(Sc2ccc(S(=O)(=O)Nc3ccc(Br)cc3)cc2)cc1` are 161 µM and 251 µM.
On the same counts, the results for `NC(=O)NN=C1c2cc(S(=O)(=O)NCc3ccco3)ccc2-c2ccc(S(=O)(=O)NCc3ccco3)cc21` are 92 µM and 20 µM.
In the case of `CCCn1c(=O)c(C(=O)NNC(=O)COc2ccccc2)c(O)c2ccccc21`, the IC50 in experiment [1] and in experiment [2] was greater than 100 µM throughout.
As to `COc1cc(C(NC(=O)c2ccco2)NC(=O)c2ccco2)ccc1OCc1ccccc1`, the IC50 in experiment [1] and in experiment [2] was greater than 100 µM in each case.
Consider `Cn1c(=O)[nH]c(=O)c2c1nc(SCC(O)CCl)n2CC(O)COc1ccc(Cl)cc1` (stereo unspecified), for which the IC50 in experiment [1] and in experiment [2] was greater than 100 µM throughout.
Turning to `O=C(Nc1cccc(O)c1)c1cc(C(=O)Nc2cccc(O)c2)cc(N2C(=O)c3ccccc3C2=O)c1`, the IC50 in experiment [1] and in experiment [2] was 100 µM throughout.
`CCCCCCc1nc2ccccc2c(=O)n1NC(=O)c1c(O)c2ccccc2n(CC)c1=O`: the IC50 in experiment [1] and in experiment [2] was greater than 100 µM throughout.
Regarding `CCCn1c(N/N=C/c2cc(Br)ccc2O)nc2c1c(=O)[nH]c(=O)n2C`, the IC50 in experiment [1] was greater than 100 µM; in experiment [2] it was 80 µM.
On the same counts, the results for `CCc1nc2sc3c(c2c2nnc(SCC(=O)NNC(=O)c4ccc(OC)cc4)n12)CCCC3` are greater than 100 µM and 100 µM.
On the same counts, the results for `O=C(O)COc1ccccc1/C=N/Nc1nncc(-c2ccccc2)n1` are 212 µM and 224 µM.
On the same counts, the results for `COc1ccc(Nc2nc(NCc3ccco3)nc(N/N=C/c3ccc(Br)cc3)n2)cc1` are 18 µM and 13 µM.
Regarding `O=C(NNC(=O)c1c(O)c2ccccc2[nH]c1=O)c1ccccc1[N+](=O)[O-]`, the IC50 was determined as 54 µM in experiment [1] and 46 µM in experiment [2].
On the same counts, the results for `O=C(NNC(=O)c1c(O)c2ccccc2[nH]c1=O)c1cccc([N+](=O)[O-])c1` are 3.3 µM and 1 µM.
On the same counts, the results for `O=C(NNC(=O)c1c(O)c2ccccc2[nH]c1=O)c1ccccc1` are 100 µM and 28 µM.
On to `O=C(O)c1ccc(NCN2C(=O)c3ccc([N+](=O)[O-])cc3C2=O)cc1`, for which the IC50 in experiment [1] is 180 µM and 138 µM; in experiment [2], 180 µM and 189 µM.
`COc1ccc(C(=O)NNC(=O)c2cc3ccccc3cc2O)cc1`: the IC50 was determined as 49 µM in experiment [1] and 18 µM in experiment [2].
Turning to `O=C(/C=C/c1ccc2c(c1)OCO2)c1ccccc1O`, the IC50 in experiment [1] and in experiment [2] was greater than 100 µM throughout.
For `COc1cc(C(=O)/C=C/c2ccc3c(c2)OCO3)cc(OC)c1OC`, the IC50 in experiment [1] and in experiment [2] was greater than 100 µM throughout.
For the molecule `O=C(N/N=C/c1ccc(O)c(O)c1)c1ccccc1O`, the IC50 in experiment [1] came out at 70 µM; in experiment [2] it was 26 µM.
Regarding `COc1ccc(NC(=O)c2cccc(S(=O)(=O)Nc3ccc(C(=O)O)cc3)c2)cc1`, the half-maximal inhibitory concentration (IC50) in experiment [1] was determined as 80 µM; in experiment [2], 70 µM.
On the same counts, the results for `CC(=O)Nc1ccc2c(c1)OCCOCCOc1cc(NC(C)=O)ccc1OCCOCCO2` are 679 µM and 680 µM.
On the same counts, the results for `O=C(N/N=C/c1cccc([N+](=O)[O-])c1)c1cccc(C(=O)N/N=C/c2cccc([N+](=O)[O-])c2)n1` are 150 µM and 130 µM.
On the same counts, the results for `CCn1c(=O)c(C(=O)NNC(=O)c2cccc([N+](=O)[O-])c2)c(O)c2ccccc21` are 37 µM and 17 µM.
`COc1cc(C(=O)/C=C/c2ccc3c(c2)OCO3)ccc1O`: the concentration for half-maximal inhibition (IC50) in experiment [1] and in experiment [2] was greater than 100 µM in each case.
On to `O=C(COc1ccc2ccccc2c1)NNC(=O)c1ccccc1O`, for which the IC50 worked out at 29 µM in experiment [1] and 18 µM in experiment [2].
On the same counts, the results for `O=C1Nc2ccccc2/C1=N/NC(=O)c1ccccc1O` are greater than 100 µM and 57 µM.
As to `O=C(NNC(=O)c1c(O)c2ccccc2[nH]c1=O)c1ccccc1F`, the IC50 in experiment [1] worked out at 52 µM; in experiment [2], 30 µM.
On the same counts, the results for `O=C(N/N=C/c1c[nH]c2ccccc12)c1ccc(O)c(O)c1` are greater than 1000 µM and 460 µM.
On the same counts, the results for `O=C(CSc1nc2ccccc2c(=O)n1CC1CCCO1)NNC(=O)c1ccccc1O` (stereo unspecified) are 85 µM and 60 µM.
In the case of `COc1ccc(NC(=O)CSc2nc(-c3ccncc3)nn2CC(=O)NCc2ccco2)cc1`, the IC50 in experiment [1] and in experiment [2] was greater than 100 µM throughout.
Take `Cn1c(SCC(=O)NNC(=O)c2cccc(O)c2)nc2sc3c(c2c1=O)CCC3`: the IC50 was found to be 87 µM in experiment [1] and 100 µM in experiment [2].
On the same counts, the results for `Oc1ccc(Br)cc1/C=N/Nc1nc2nonc2nc1Nc1ccc(F)cc1` are 16 µM and 11 µM.
As for `O=C(CSc1nc(SCC(=O)NCc2ccco2)nc(SCC(=O)NCc2ccco2)n1)NCc1ccco1`, the IC50 in experiment [1] is 28 µM; in experiment [2] it was 12 µM.
